Source: paper PMC8225959, “Clickable Radiocomplexes With Trivalent Radiometals for Cancer Theranostics: In vitro and in vivo Studies” (Frontiers in Medicine, 2021)

Assays:
PC3 tumor = assay: Cerenkov luminescence imaging of PC3 tumor-bearing mice pretargeted with TCO-PEG4-AR then [90Y]Y-DOTA-Tz; format: in vivo; settings: 1 nmol TCO-PEG4-AR, radiocomplex after 4 h
Method: The Cerenkov Luminescence Imaging of the prostate cancer PC3 tumor-bearing mice was carried out at different time points (15 min, 1 and 2 h) after intravenous injection of [^90Y]Y-DOTA-Tz. […] Thereafter, the CLI imaging of the PC3 tumor-bearing mice was carried out at different time points (15 min, 1 h). The images were obtained using PhotonIMAGER™ (BioSpace Lab).

PC3 xenografts = assay: Ex vivo biodistribution of [90Y]Y-DOTA-Tz in mice bearing PC3 xenografts; settings: PC3 xenograft mice
Excerpt: Currently, we are investigating the application of click chemistry using biomolecules that target prostate cancer. Therefore, since a non-specific tumor uptake might interfere with the specificity of the pre-targeting approach, we have performed in vivo studies of [^90Y]Y-DOTA-Tz in mice bearing PC3 xenografts to assess the possible non-specific uptake of the clickable radiocomplex in the tumor and in the tumor microenvironment. […] This type of optical imaging offers a high spatial resolution, and despite a limited penetration depth allows to image ^90Y, which is not easily feasible using PET or SPECT imaging ([32]). […] At the selected time points the majority of the compound was retrieved in the urine, with 88 and 96% of the I.D. excreted 1 and 2 h post-injection, respectively. page 9: from whole animal body. Blood samples were taken by cardiac puncture at sacrifice. […] The animals were kept under […] volume of approximate 390 ± 190 mm3. […] […] carried out on groups of 8 mice (n = 4). […] The animals were weighed and dissected.

[1] = Stability of the [90Y]Y-DOTA-Tz preparation (HPLC, radiolysis); format: physicochemical
Method: The radiolabelling with ^90Y was performed following the same procedure previously optimized for ^111In, using a buffer of 0.1 M ammonium acetate at pH 7 and heating the mixture at 80°C for 15 min. The DOTA-Tz chelator was added to a final concentration of 400–500 μM to yield [^90Y]Y-DOTA-Tz with specific activities up to 3.3 MBq/nmol and radiochemical yields above 90% (Supplementary Figure 4A). The radiocomplex [^90Y]Y-DOTA-Tz was synthesized with ~130 MBq of [^90Y]YCl3 and obtained in very high specific activity, after separation from the non-labeled DOTA-Tz chelator. The radiocomplex was recovered into phosphate buffer at pH 8 to neutralize the residual TFA from the HPLC mobile phase before its use in future biological studies. […] In order to stabilize the [^90Y]Y-DOTA-Tz preparation, a suitable ratio between the volume of phosphate buffer solution at pH 8 to neutralize the TFA from the HPLC purification and ascorbic acid as a radiolytic stabilizer had to be optimized. In initial experiments, the use of ascorbic acid as a buffer in the radiolabelling procedure led to the degradation of the tetrazine moiety. Similar effect was seen when the ascorbic acid solution (50 mg/mL) was added to the solution after labeling. […]

[2] = 1 h p.i., listed as [^90Y]Y-DOTA-Tz
[3] = 2 h p.i., listed as [^90Y]Y-DOTA-Tz

In the case of `O=C([O-])CN1CCN(CC(=O)[O-])CCN(CC(=O)NCc2ccc(-c3nncnn3)cc2)CCN(CC(=O)[O-])CC1.[90Y+3]` [[90Y]Y-DOTA-Tz], the “Cerenkov imaging: tumor uptake” value (PC3 tumor; images at 15 min p.i.) is reported as “some tumor uptake”, the “Cerenkov imaging: activity localization” value (PC3 tumor; images at 1 h after the injection) is reported as “majority of the activity localized in the kidneys” and the “Biodistribution: Blood” value (PC3 xenografts; 1 h p.i.) is reported as 1.59 ± 0.62 % I.D./g. The “Biodistribution: Bone” value (PC3 xenografts; 1 h p.i.) was 1.04 ± 0.25 % I.D./g, the “Biodistribution: Intestine” value (PC3 xenografts; 1 h p.i.) was 0.41 ± 0.2 % I.D./g and the “Biodistribution: Kidneys” value (PC3 xenografts; 1 h p.i.) was 3.65 ± 0.49 % I.D./g. For the same compound, the “Biodistribution: Liver” value (PC3 xenografts; 1 h p.i.) was 0.76 ± 0.07 % I.D./g, the “Biodistribution: Lung” value (PC3 xenografts; 1 h p.i.) was 1.24 ± 0.32 % I.D./g and the “Biodistribution: Muscle” value (PC3 xenografts; 1 h p.i.) was 0.5 ± 0.2 % I.D./g. For the same compound, the “Biodistribution: Pancreas” value (PC3 xenografts; 1 h p.i.) was 0.7 ± 0.32 % I.D./g, the “Biodistribution: Salivary Gland” value (PC3 xenografts; 1 h p.i.) was 0.68 ± 0.12 % I.D./g and the “Biodistribution: Spleen” value (PC3 xenografts; 1 h p.i.) was 1 ± 0.27 % I.D./g. The “Biodistribution: Stomach” value (PC3 xenografts; 1 h p.i.) was 0.65 ± 0.33 % I.D./g, the “Biodistribution: Tumour” value (PC3 xenografts; 1 h p.i.) was 1.0 ± 0.4 % I.D./g and the “Biodistribution: Blood” value (PC3 xenografts; [2]) was 1.59 % I.D./g. The “Biodistribution: Kidneys” value (PC3 xenografts; [2]) was 3.6 % I.D./g, the “Biodistribution: Blood” value (PC3 xenografts; 2 h p.i.) was 0.22 ± 0.01 % I.D./g and the “Biodistribution: Bone” value (PC3 xenografts; 2 h p.i.) was 0.54 ± 0.04 % I.D./g. For the same compound, the “Biodistribution: Intestine” value (PC3 xenografts; 2 h p.i.) was 0.17 ± 0.05 % I.D./g, the “Biodistribution: Kidneys” value (PC3 xenografts; 2 h p.i.) was 2.54 ± 0.71 % I.D./g and the “Biodistribution: Liver” value (PC3 xenografts; 2 h p.i.) was 0.49 ± 0.15 % I.D./g. For the same compound, the “Biodistribution: Lung” value (PC3 xenografts; 2 h p.i.) was 0.31 ± 0.04 % I.D./g, the “Biodistribution: Muscle” value (PC3 xenografts; 2 h p.i.) was 0.15 ± 0.01 % I.D./g and the “Biodistribution: Pancreas” value (PC3 xenografts; 2 h p.i.) was 0.27 ± 0.12 % I.D./g. The “Biodistribution: Salivary Gland” value (PC3 xenografts; 2 h p.i.) was 0.17 ± 0.02 % I.D./g, the “Biodistribution: Spleen” value (PC3 xenografts; 2 h p.i.) was 0.33 ± 0.16 % I.D./g and the “Biodistribution: Stomach” value (PC3 xenografts; 2 h p.i.) was 0.23 ± 0.08 % I.D./g. For the same compound, the “Biodistribution: Tumour” value (PC3 xenografts; 2 h p.i.) was 0.37 ± 0.17 % I.D./g, the “Biodistribution: Blood” value (PC3 xenografts; [3]) was 0.22 % I.D./g and the “Biodistribution: Kidneys” value (PC3 xenografts; [3]) was 2.5 % I.D./g. For the same compound, the “Biodistribution: Tumour” value (PC3 xenografts; [3]) was 0.37 % I.D./g, the “in vitro stability of the preparation” value ([1]; 3 μL ascorbic acid (50 mg/mL) and 147 μL phosphate buffer pH 8, up to 20 h after the radiolabelling) was “excellent in vitro stability” and the “stability of the preparation” value ([1]; recovered into phosphate buffer pH 8, no stabilizer, after 2 h at room temperature) was “high degradation”.
